# Columns and labels:
# HDAC6 = molecular target: T1, HDAC6 (Homo sapiens, UniProt Q9UBN7); assay: HDAC-Glo I/II assay, HDAC6; assay type: biochemical; details: recombinant human HDAC6, HDAC-Glo; read-out: pIC50 HDAC6 Glo (converted)
# T1 construct: purchased BPS Bioscience 50006
# T1 sequence (Q9UBN7 1-1215): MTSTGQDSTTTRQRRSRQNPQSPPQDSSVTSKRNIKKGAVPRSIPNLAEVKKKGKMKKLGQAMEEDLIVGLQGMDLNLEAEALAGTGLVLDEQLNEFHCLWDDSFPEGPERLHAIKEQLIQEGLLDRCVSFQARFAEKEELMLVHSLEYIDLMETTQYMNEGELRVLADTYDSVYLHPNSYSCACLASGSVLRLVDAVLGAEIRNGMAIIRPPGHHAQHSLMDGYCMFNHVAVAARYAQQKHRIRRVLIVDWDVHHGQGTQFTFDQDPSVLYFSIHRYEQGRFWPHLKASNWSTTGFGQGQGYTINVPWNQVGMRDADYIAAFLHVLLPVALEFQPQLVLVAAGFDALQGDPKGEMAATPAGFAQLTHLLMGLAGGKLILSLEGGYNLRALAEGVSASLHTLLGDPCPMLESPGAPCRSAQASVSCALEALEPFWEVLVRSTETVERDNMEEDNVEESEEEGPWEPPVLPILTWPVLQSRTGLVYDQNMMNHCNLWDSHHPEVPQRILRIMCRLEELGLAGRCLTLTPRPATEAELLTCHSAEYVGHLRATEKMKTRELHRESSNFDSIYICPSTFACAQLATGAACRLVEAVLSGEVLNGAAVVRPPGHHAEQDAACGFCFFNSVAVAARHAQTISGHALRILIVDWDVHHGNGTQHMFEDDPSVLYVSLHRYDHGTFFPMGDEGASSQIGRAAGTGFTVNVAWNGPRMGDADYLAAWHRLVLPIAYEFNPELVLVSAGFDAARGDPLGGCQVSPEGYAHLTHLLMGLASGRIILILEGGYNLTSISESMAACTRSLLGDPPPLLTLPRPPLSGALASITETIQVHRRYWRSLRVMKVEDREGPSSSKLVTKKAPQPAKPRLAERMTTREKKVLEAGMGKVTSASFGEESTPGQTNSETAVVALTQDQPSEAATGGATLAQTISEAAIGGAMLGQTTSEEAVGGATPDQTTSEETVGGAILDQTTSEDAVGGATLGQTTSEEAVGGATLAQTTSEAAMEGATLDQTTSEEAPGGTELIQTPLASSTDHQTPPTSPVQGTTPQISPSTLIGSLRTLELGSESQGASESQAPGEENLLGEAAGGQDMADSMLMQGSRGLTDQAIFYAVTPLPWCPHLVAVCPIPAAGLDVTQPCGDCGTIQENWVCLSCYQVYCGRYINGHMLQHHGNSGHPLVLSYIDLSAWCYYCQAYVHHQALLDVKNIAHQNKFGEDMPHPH
# HDAC2 = molecular target: T2, HDAC2 (Homo sapiens, UniProt Q92769); assay: HDAC-Glo I/II assay, HDAC2; assay type: biochemical; details: recombinant human HDAC2, HDAC-Glo; read-out: pIC50 HDAC2 Glo (converted)
# T2 construct: purchased BPS Bioscience 50002
# HDAC3/NcoR2 complex = molecular target: T3, HDAC3/NcoR2 complex (Homo sapiens, UniProt O15379); assay: HDAC-Glo I/II assay, HDAC3/NcoR2 complex; assay type: biochemical; details: recombinant human HDAC3/NcoR2 complex, read-out: pIC50 HDAC3 Glo (converted)
# T3 construct: purchased BPS Bioscience 50003
# HDAC1 = molecular target: T4, HDAC1 (Homo sapiens, UniProt Q13547); assay: HDAC-Glo I/II assay, HDAC1; assay type: biochemical; details: recombinant human HDAC1, HDAC-Glo; read-out: pIC50 HDAC1 Glo (converted)
# T4 construct: purchased BPS Bioscience 50051
# TwinStrep-GST-HDAC10 = molecular target: T5, TwinStrep-GST-HDAC10 (Homo sapiens, UniProt Q969S8); assay: HDAC10 TR-FRET assay (Tubastatin-AF647-Tracer displacement); assay type: binding; details: TR-FRET, 60 min at rt; read-out: pIC50 HDAC10 FRET (converted)
# T5 construct: made in house; host or cells: Sf21 insect cells (baculovirus, pFastBac1)
# T5 sequence (Q969S8 1-669): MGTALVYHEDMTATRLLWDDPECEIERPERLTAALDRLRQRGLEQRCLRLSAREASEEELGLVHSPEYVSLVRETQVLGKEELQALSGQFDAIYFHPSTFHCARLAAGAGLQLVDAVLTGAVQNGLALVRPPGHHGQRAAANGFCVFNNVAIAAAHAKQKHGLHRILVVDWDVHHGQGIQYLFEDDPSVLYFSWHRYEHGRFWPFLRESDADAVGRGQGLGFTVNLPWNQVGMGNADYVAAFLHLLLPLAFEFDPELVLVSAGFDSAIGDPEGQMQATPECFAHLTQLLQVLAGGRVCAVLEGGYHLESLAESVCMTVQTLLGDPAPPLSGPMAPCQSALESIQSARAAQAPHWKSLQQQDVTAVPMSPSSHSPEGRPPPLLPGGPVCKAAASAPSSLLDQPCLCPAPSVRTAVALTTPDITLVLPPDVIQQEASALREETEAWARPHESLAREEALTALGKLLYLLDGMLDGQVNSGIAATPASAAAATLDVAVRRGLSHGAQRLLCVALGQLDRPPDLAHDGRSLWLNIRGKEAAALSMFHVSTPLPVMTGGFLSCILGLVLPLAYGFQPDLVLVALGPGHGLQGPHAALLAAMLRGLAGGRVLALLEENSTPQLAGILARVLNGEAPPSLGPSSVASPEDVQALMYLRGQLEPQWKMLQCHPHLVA
# [1] = molecular target: T6, HDAC10-nanoluciferase fusion in HeLa cells (Homo sapiens, UniProt Q969S8); assay: BRET intracellular target engagement assay, HDAC10; details: for HDAC10/6 fold selectivity (BRET): HDAC10 over HDAC6, from BRET
# T6 sequence (Q969S8 1-669): T5 sequence (Q969S8 1-669)
# [2] = molecular target: T7, HDAC6 (2nd catalytic domain)-nanoluciferase fusion in HeLa cells (Homo sapiens, UniProt Q9UBN7); assay: BRET intracellular target engagement assay, HDAC6
# T7 sequence (Q9UBN7 482-800 limits assumed): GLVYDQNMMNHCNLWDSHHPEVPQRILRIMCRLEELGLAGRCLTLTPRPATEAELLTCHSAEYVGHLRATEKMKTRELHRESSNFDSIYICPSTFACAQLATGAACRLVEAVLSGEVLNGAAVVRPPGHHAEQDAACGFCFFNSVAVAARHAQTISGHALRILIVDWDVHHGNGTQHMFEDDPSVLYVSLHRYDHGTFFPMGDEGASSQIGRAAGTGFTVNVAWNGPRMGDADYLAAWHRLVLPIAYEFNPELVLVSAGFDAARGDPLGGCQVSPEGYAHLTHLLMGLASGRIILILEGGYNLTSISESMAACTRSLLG
# HDAC8 = molecular target: T8, HDAC8 (Homo sapiens, UniProt Q9BY41); assay: HDAC-Glo I/II assay, HDAC8; assay type: biochemical; parameters: purchased BPS Bioscience 50008; details: recombinant human HDAC8, HDAC-Glo; read-out: pIC50 HDAC8 Glo (converted)
# T8 sequence (Q9BY41 1-377): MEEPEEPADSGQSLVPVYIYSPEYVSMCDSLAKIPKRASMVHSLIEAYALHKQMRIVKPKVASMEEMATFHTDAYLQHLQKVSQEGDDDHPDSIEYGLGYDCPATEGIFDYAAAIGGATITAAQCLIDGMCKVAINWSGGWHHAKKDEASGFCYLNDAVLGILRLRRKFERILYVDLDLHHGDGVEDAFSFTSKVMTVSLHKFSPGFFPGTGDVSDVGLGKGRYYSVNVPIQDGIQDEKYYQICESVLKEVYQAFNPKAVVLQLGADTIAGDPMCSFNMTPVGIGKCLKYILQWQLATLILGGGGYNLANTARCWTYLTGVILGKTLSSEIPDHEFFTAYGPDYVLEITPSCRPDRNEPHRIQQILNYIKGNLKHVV
# [3] = Solubility in water (observation during purification); assay type: physicochemical
# T3 sequence (O15379 whole entry): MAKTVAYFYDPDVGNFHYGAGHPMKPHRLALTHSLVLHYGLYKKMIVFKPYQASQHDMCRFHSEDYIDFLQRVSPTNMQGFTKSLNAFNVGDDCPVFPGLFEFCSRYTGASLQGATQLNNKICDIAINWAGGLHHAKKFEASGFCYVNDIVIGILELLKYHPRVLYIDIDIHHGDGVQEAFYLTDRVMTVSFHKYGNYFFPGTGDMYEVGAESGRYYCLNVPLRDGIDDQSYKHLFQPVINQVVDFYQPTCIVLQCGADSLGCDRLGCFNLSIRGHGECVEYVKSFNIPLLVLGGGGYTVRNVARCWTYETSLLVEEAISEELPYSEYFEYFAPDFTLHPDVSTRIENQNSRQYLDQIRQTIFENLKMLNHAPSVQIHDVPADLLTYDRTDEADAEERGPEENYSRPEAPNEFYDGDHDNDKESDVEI
# T3 sequence (Q9Y618 395-489 partner limits assumed): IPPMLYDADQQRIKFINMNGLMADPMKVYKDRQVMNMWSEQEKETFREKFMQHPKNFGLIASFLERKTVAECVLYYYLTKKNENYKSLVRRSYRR
# T2 sequence (Q92769 whole entry): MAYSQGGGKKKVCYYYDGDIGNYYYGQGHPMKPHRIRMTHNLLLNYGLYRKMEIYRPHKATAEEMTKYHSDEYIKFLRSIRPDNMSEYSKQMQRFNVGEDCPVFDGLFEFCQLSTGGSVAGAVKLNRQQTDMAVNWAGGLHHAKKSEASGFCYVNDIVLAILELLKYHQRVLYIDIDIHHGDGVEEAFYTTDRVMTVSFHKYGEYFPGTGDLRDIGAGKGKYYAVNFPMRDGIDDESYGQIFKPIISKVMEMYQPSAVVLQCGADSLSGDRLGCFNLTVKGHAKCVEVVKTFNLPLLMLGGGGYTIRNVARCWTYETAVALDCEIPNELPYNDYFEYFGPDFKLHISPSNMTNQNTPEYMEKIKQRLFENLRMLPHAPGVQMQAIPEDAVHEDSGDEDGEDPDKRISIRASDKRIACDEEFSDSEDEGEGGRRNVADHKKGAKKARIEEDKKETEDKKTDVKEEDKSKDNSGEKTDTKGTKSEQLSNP
# T4 sequence (Q13547 whole entry): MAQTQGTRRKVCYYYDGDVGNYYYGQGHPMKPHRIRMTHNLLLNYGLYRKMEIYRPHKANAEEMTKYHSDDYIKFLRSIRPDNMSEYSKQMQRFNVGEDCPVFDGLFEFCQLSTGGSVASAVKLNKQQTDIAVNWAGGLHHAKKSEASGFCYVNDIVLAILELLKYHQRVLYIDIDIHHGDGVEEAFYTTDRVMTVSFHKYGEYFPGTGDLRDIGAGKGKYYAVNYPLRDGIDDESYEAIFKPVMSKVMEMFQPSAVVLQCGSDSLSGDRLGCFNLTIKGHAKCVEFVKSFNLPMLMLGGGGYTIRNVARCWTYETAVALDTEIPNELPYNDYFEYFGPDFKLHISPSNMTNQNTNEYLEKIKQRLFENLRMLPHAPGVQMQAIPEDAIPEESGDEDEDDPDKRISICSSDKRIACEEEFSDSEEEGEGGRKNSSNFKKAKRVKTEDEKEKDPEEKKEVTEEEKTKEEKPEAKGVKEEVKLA
Compound,IC50 (HDAC6),IC50 (HDAC2),IC50 (HDAC3/NcoR2 complex),IC50 (HDAC1),IC50 (TwinStrep-GST-HDAC10),IC50 [1],HDAC10/6 fold selectivity (BRET) [1],IC50 [2],IC50 (HDAC8),solubility in water [3]
"CC(C)N(CCCC(=O)NO)CCC(=O)Nc1ccccc1 [DKFZ-715, 4-(Isopropyl(3-oxo-3-(phenylamino)propyl)amino)-N-hydroxybutanamide]",12.6 µM,> 200 µM,< 200 µM,398 µM,0.631 µM,2 µM,>21 fold,> 39.8 µM,5.01 µM,–
"CCCN(CCCC(=O)NO)CCC(=O)Nc1ccccc1 [DKFZ-716, 4-(Propyl(3-oxo-3-(phenylamino)propyl)amino)-N-hydroxybutanamide]",5.01 µM,> 200 µM,~200 µM,79.4 µM,0.316 µM,1 µM,~366 fold,> 39.8 µM,7.94 µM,–
"CCCCN(CCCC(=O)NO)CCC(=O)Nc1ccccc1 [DKFZ-717, 4-(Butyl(3-oxo-3-(phenylamino)propyl)amino)-N-hydroxybutanamide]",5.01 µM,> 200 µM,~200 µM,79.4 µM,0.631 µM,1.58 µM,38 fold,> 39.8 µM,7.94 µM,–
"O=C(CCCN(CCC(=O)Nc1ccccc1)Cc1ccccc1)NO [DKFZ-718, 4-(Benzyl(3-oxo-3-(phenylamino)propyl)amino)-N-hydroxybutanamide]",1 µM,~126 µM,~100 µM,25.1 µM,2 µM,0.501 µM,25 fold,10 µM,2.51 µM,–
"O=C(CCCN(CCC(=O)Nc1ccccc1)C1CC1)NO [DKFZ-724, 4-(Cyclopropyl(3-oxo-3-(phenylamino)propyl)amino)-N-hydroxybutanamide]",3.16 µM,> 200 µM,126 µM,39.8 µM,0.251 µM,0.398 µM,>110 fold,> 39.8 µM,2 µM,–

# Results, then the molecule that gave them:
IC50 (HDAC6),IC50 (HDAC2),IC50 (HDAC3/NcoR2 complex),IC50 (HDAC1),IC50 (TwinStrep-GST-HDAC10),IC50 [1],HDAC10/6 fold selectivity (BRET) [1],IC50 [2],IC50 (HDAC8),solubility in water [3],Compound
6.31 µM,> 100 µM,> 100 µM,15.8 µM,0.02 µM,2 µM,>21 fold,> 39.8 µM,~25.1 µM,–,"CN(CCCC(=O)NO)CCNC(=O)c1ccc(/C(N)=N/O)cc1 [DKFZ-750, N-(2-((4-(Hydroxyamino)-4-oxobutyl)(methyl)amino)ethyl)-4-(M-hydroxycarbamimidoyl)benzamide]"
6.31 µM,> 100 µM,> 100 µM,10 µM,0.00794 µM,0.0631 µM,423 fold,25.1 µM,~25.1 µM,–,"CN(CCCC(=O)NO)CCNC(=O)c1cccc2cn[nH]c12 [DKFZ-757, N-(2-((4-(Hydroxyamino)-4-oxobutyl)(methyl)amino)ethyl)-1H-indazole-7-carboxamide]"
6.31 µM,79.4 µM,> 100 µM,50.1 µM,0.158 µM,2 µM,>20 fold,> 39.8 µM,20 µM,–,"O=C(CC1CN(CCC(=O)Nc2ccccc2)C1)NO [DKFZ-770, 3-(3-(2-(Hydroxyamino)-2-oxoethyl)azetidin-1-yl)-N-phenylpropanamide]"
0.631 µM,3.98 µM,–,2 µM,–,–,–,3.98 µM,0.794 µM,–,"CN(CCCC(=O)NO)CCNC(=O)c1c2ccccc2cc2ccccc12 [DKFZ-771, N-(2-((4-(Hydroxyamino)-4-oxobutyl)(methyl)amino)ethyl)anthracene-9-carboxamide]"
2.51 µM,12.6 µM,> 100 µM,6.31 µM,0.00316 µM,0.0316 µM,398 fold,~12.6 µM,1.26 µM,–,"COc1ccc(C(=O)NCCN(C)CCCC(=O)NO)c2ccccc12 [DKFZ-774, N-(2-((4-(Hydroxyamino)-4-oxobutyl)(methyl)amino)ethyl)-4-methoxy-1-naphthamide]"
> 100 µM,> 100 µM,> 100 µM,> 100 µM,0.398 µM,31.6 µM,>1 fold,> 39.8 µM,> 100 µM,poorly soluble in water,"C[N+](C)(CCCC(=O)[N-]O)CCNC(=O)c1ccccc1 [DKFZ-777, (4-((2-Benzamidoethyl)dimethylammonio)butanoyl)(hydroxy)amide]"
